Patent US20150329498A1, “IRAK INHIBITORS AND USES THEREOF” (Nimbus Iris, Inc., priority 2014, published 2015)

Experiments:
[1] = tested on: TNFα production in THP-1 cells; experiment: LPS induced TNFα production assay in THP-1 cells; assay type: cell-based; conditions: Homo sapiens, 300 ng/mL LPS, measured at 5 hours
[2] = tested on: IFNα production in human white blood cells (hWBC); experiment: CpG induced IFNα production in hWBC; assay type: cell-based; conditions: 0.5 uM CpG, 20 hours
Experimental: Compounds of the present invention were also studied in in vitro cytokine production assays. Exemplary protocols follow.
Human whole blood and hWBC assays: Human whole blood was diluted by combining whole blood with no serum RPMI medium at a ratio of 1:1. 180 ul/well of the diluted whole blood/well was added to a 96 well plate. For WBC assay 100,000 cells/well were seeded in a 96-well plate with a volume of 100 ul/well. To make the compound master plate 9 ul of 30 mM compound solution was added into the wells in the assigned rows, then serial solutions with 4x dilutions were made in DMSO. That is, 9 uL of 100% DMSO were added into each of the rest wells and 3 uL of compound solution was taken from the one-step higher concentration solution and mixed well with the DMSO. An intermediate compound dilution plate was made by mixing 4 uL of the compound solution from the compound master plate with 196 uL of no serum RPMI medium. hWBC or human whole blood was treated for 0.5 hour by adding 20 uL/well of the compound and the control solutions from the intermediate compound plate to the cell plate. 80 uL/well or 20 uL/well of stimulant were then added to the human whole blood or hWBC respectively. […] The supernatants were then collected and cytokine levels were measured with ELISA for TNFα (R&D Systems, #DY210) and IFNα (R&D Systems, #41100-2) per manufacturer's instruction.

[3] = tested on: LPS induced TNF alpha production; experiment: Inhibition of LPS induced TNFα production in vivo; conditions: female Lewis rats, dosed PO 2 hours prior to LPS IV, serum TNFα after 1 hr; minimum efficacious dose
Experimental: Selected compounds were tested in vivo in female Lewis rats for LPS induced TNF alpha production by dosing PO for 2 hours prior to LPS administration IV, followed by bleeding after 1 hr for measurement of TNFα produced in serum using ELISA (Biosource). […] Compounds having an activity designated as “A” provided a MED<5.0 mg/kg; compounds having an activity designated as “B” provided a MED of 5.0-20 mg/kg; compounds having an activity designated as “C” provided a MED of 20-50 mg/kg; compounds having an activity designated as “D” provided a MED of >50 mg/kg

| Structure (SMILES) | IC50 [1] | IC50 [2] | MED (mg/kg) [3] |
| --- | --- | --- | --- |
| N#Cc1ccc2ncnc(N[C@H]3CC[C@H](N4CCOCC4)CC3)c2c1 [Compound I-3, 4-(((1r,4r)-4-morpholinocyclohexyl)amino)quinazoline-6-carbonitrile] | ≤ 500 nM | 1000 to 10000 nM | C (MED of 20-50 mg/kg) |
| N#Cc1ccc2ncnc(N[C@H]3CC[C@H](N4CCC5(CC4)CC5)CC3)c2c1 [Compound I-7, 4-(((1r,4r)-4-(6-azaspiro[2.5]octan-6-yl)cyclohexyl)amino)-quinazoline-6-carbonitrile] | ≤ 500 nM | ≤ 250 nM | A (MED<5.0 mg/kg) |
